For the test, the system named is HCT116 cells. The test can be described thus: Annexin V-FITC/PI staining assay (flow cytometry), with protection assays. Type of test: cell-based, human. Here is the method:
For apoptosis detection, we used the FITC Annexin V Apoptosis Detection Kit I (BD Biosciences), and the analysis was performed according to the manufacturer's instructions. The cell fluorescence was determined by flow cytometry as described above. The protection assays using a caspase-3 inhibitor (Z-DEVD-FMK, BD Biosciences), a p53 inhibitor (cyclic pifithrin-α, Cayman Chemical, Ann Arbor, MI, USA), and an antioxidant N-acetyl-L-cysteine (NAC, Sigma-Aldrich Co.) were performed. In brief, the cells were pretreated for 2 h with 50 μM Z-DEVD-FMK and 10 μM cyclic pifithrin-α and for 1 h with 5 mM NAC, followed by incubation with 14 μM xylopine for 48 h. The cells were then trypsinized and the FITC Annexin V Apoptosis Detection assay was conducted as described above.
In general terms: Flow cytometry measures light scatter and fluorescence of single cells or particles in a stream.

On to `COc1ccc2c(c1)C[C@@H]1NCCc3cc4c(c-2c31)OCO4` [XYL, xylopine], for which the “xylopine-induced apoptosis on cotreatment with caspase-3 inhibitor (Z-DEVD-FMK)” value (HCT116, 50 μM Z-DEVD-FMK 2 h, then 14 μM xylopine 48 h) is recorded as “prevented”. Moreover, the “xylopine-induced increase of cell death by apoptosis on cotreatment with NAC” value (HCT116, 5 mM NAC 1 h, then 14 μM xylopine 48 h) is reported as “prevented”. The “early and late apoptosis” value (HCT116, annexin V/PI, 24 and 48 h, p < 0.05) was “significantly increased”. The necrotic cells result (HCT116, annexin V/PI, 48 h, p < 0.05) is reported as “significant increase”.

The values above are taken from paper PMC5736936, “Xylopine Induces Oxidative Stress and Causes G2/M Phase Arrest, Triggering Caspase-Mediated Apoptosis by p53-Independent Pathway in HCT116 Cells” (Oxidative Medicine and Cellular Longevity, 2017).
